Reference: the NIST ThermoML archive (doi:10.1021/je500153g)

Assay: xn = mol fraction of the nth substance listed
Conditions: 101 kPa, Liquid; for viscosity: Concentric cylinders viscometry; for mass density: Vibrating tube method

OCCOCCOCCO [triethylene glycol] + O=S1(=O)CCCC1
Conditions	mass density, 303.15 K [kg/m3]	mass density, 313.15 K [kg/m3]	mass density, 323.15 K [kg/m3]	mass density, 333.15 K [kg/m3]	mass density, 343.15 K [kg/m3]	viscosity, 303.15 K [mPa·s]	viscosity, 313.15 K [mPa·s]	viscosity, 323.15 K [mPa·s]	viscosity, 333.15 K [mPa·s]	viscosity, 343.15 K [mPa·s]
x2 = 0	1116.5	1108.9	1101.1	1093.4	1085.5	29.5	19.3	13.3	9.58	7.16
x2 = 0.123	1130.3	1122.4	1114.6	1106.6	1098.5	25.6	16.9	11.8	8.6	6.49
x2 = 0.268	1147.6	1139.5	1131.5	1123.3	1115	21.2	14.3	10.1	7.49	5.74
x2 = 0.505	1178.8	1170.5	1161.9	1153.4	1145	15.6	10.9	8	6.09	4.78
x2 = 0.598	1192.2	1183.7	1175.1	1166.6	1158	13.9	9.9	7.36	5.67	4.49
x2 = 0.678	1204.5	1196	1187.5	1178.8	1170.1	12.6	9.13	6.88	5.36	4.29
x2 = 0.768	1219	1210.3	1201.5	1192.9	1184.3	11.4	8.4	6.43	5.09	4.12
x2 = 0.837	1231.3	1222.6	1213.9	1205.2	1196.4	10.8	8.11	6.29	5.01	4.1
x2 = 0.929	1248.8	1240	1231.2	1222.4	1213.7	10.3	7.89	6.22	5.02	4.13
